Laboratory results reported in PubChem BioAssay AID1259407 (Chemical Carcinogenesis Research Information System (CCRIS), 2018).
Activity calls are given as the source filed them. How the calls were made is not given here.

Tested on: CCRIS mutagenicity, Ames/micronucleus/aberration tests
Experiment: CCRIS mutagenicity studies
[1] = End Point: IN VITRO CHROMOSOMAL ABERRATIONS, Test System: CHL CELLS, Metabolic Activation: RAT, LIVER, S-9, SODIUM PHENOBARBITAL AND 5,6-BENZOFLAVONE
[2] = Test System: AMES SALMONELLA TYPHIMURIUM, Strain/Indicator: TA98, Metabolic Activation: NONE, Method: STANDARD PLATE
[3] = Test System: AMES SALMONELLA TYPHIMURIUM, Strain/Indicator: TA100, Metabolic Activation: NONE, Method: STANDARD PLATE

FC(F)Cl
mutagenic call (End Point: IN VITRO CHROMOSOMAL ABERRATIONS, Test System: CHL CELLS, Metabolic Activation: NONE): inactive; negative
mutagenic call [1]: inactive; negative
mutagenic call (Test System: AMES SALMONELLA TYPHIMURIUM, Strain/Indicator: TA98, Metabolic Activation: NONE, Method: GAS EXPOSURE): inactive; negative
mutagenic call (Test System: AMES SALMONELLA TYPHIMURIUM, Strain/Indicator: TA98, Metabolic Activation: RAT LIVER S-9, PHENOBARBITAL AND BETA-NAPHTHOFLAVONE (40%), Method: GAS EXPOSURE): inactive; negative
mutagenic call (Test System: AMES SALMONELLA TYPHIMURIUM, Strain/Indicator: TA98, Metabolic Activation: RAT, LIVER, S-9, PHENOBARBITAL AND 5,6-BENZOFLAVONE, Method: GAS EXPOSURE): inactive; negative
mutagenic call (Test System: AMES SALMONELLA TYPHIMURIUM, Strain/Indicator: TA100, Metabolic Activation: RAT LIVER S-9, PHENOBARBITAL AND BETA-NAPHTHOFLAVONE (40%), Method: GAS EXPOSURE): active; positive
mutagenic call (Test System: AMES SALMONELLA TYPHIMURIUM, Strain/Indicator: TA100, Metabolic Activation: RAT, LIVER, S-9, PHENOBARBITAL AND 5,6-BENZOFLAVONE, Method: GAS EXPOSURE): active; positive
mutagenic call (Test System: AMES SALMONELLA TYPHIMURIUM, Strain/Indicator: TA1535, Metabolic Activation: NONE, Method: GAS EXPOSURE): active; positive
mutagenic call (Test System: AMES SALMONELLA TYPHIMURIUM, Strain/Indicator: TA1535, Metabolic Activation: RAT LIVER S-9, PHENOBARBITAL AND BETA-NAPHTHOFLAVONE (40%), Method: GAS EXPOSURE): active; positive
mutagenic call (Test System: AMES SALMONELLA TYPHIMURIUM, Strain/Indicator: TA1535, Metabolic Activation: RAT, LIVER, S-9, AROCLOR 1254, Method: DESICCATOR): active; positive
mutagenic call (Test System: AMES SALMONELLA TYPHIMURIUM, Strain/Indicator: TA1535, Metabolic Activation: RAT, LIVER, S-9, PHENOBARBITAL AND 5,6-BENZOFLAVONE, Method: GAS EXPOSURE): active; positive
mutagenic call (Test System: AMES SALMONELLA TYPHIMURIUM, Strain/Indicator: TA1537, Metabolic Activation: NONE, Method: GAS EXPOSURE): inactive; negative
mutagenic call (Test System: AMES SALMONELLA TYPHIMURIUM, Strain/Indicator: TA1537, Metabolic Activation: RAT LIVER S-9, PHENOBARBITAL AND BETA-NAPHTHOFLAVONE (40%), Method: GAS EXPOSURE): inactive; negative
mutagenic call (Test System: AMES SALMONELLA TYPHIMURIUM, Strain/Indicator: TA1537, Metabolic Activation: RAT, LIVER, S-9, PHENOBARBITAL AND 5,6-BENZOFLAVONE, Method: GAS EXPOSURE): inactive; negative
mutagenic call (Test System: E. COLI, Strain/Indicator: WP2 UVRA, Metabolic Activation: NONE, Method: GAS EXPOSURE): inactive; negative
mutagenic call (Test System: E. COLI, Strain/Indicator: WP2 UVRA, Metabolic Activation: RAT, LIVER, S-9, PHENOBARBITAL AND 5,6-BENZOFLAVONE, Method: GAS EXPOSURE): inactive; negative
mutagenic call (Test System: E.COLI, Strain/Indicator: WP2UVRA, Metabolic Activation: NONE, Method: GAS EXPOSURE): inactive; negative
mutagenic call (Test System: E.COLI, Strain/Indicator: WP2UVRA, Metabolic Activation: RAT LIVER S-9, PHENOBARBITAL AND BETA-NAPHTHOFLAVONE (40%), Method: GAS EXPOSURE): inactive; negative

Cc1cc(Cl)ccc1OC(C)C(=O)O (configuration not stated)
mutagenic call (Test System: AMES SALMONELLA TYPHIMURIUM, Strain/Indicator: TA97, Metabolic Activation: NONE, Method: STANDARD PLATE): inactive; negative
mutagenic call (Test System: AMES SALMONELLA TYPHIMURIUM, Strain/Indicator: TA97, Metabolic Activation: RAT, LIVER, S-9, AROCLOR 1254, Method: STANDARD PLATE): inactive; negative
mutagenic call [2]: inactive; negative
mutagenic call (Test System: AMES SALMONELLA TYPHIMURIUM, Strain/Indicator: TA98, Metabolic Activation: RAT, LIVER, S-9, AROCLOR 1254, Method: STANDARD PLATE): inactive; negative
mutagenic call [3]: inactive; negative
mutagenic call (Test System: AMES SALMONELLA TYPHIMURIUM, Strain/Indicator: TA100, Metabolic Activation: RAT, LIVER, S-9, AROCLOR 1254, Method: STANDARD PLATE): inactive; negative
mutagenic call (Test System: AMES SALMONELLA TYPHIMURIUM, Strain/Indicator: TA102, Metabolic Activation: NONE, Method: STANDARD PLATE): inactive; negative
mutagenic call (Test System: AMES SALMONELLA TYPHIMURIUM, Strain/Indicator: TA102, Metabolic Activation: RAT, LIVER, S-9, AROCLOR 1254, Method: STANDARD PLATE): inactive; negative

CCC(Cl)C(=O)O (configuration not stated)
mutagenic call [1]: inactive; negative
mutagenic call (End Point: IN VITRO CHROMOSOMAL ABERRATIONS, Test System: CHL/IU CELLS, Metabolic Activation: NONE): active; positive (structural changes)
mutagenic call (End Point: IN VITRO MICRONUCLEUS, Test System: CHL/IU CELLS, Metabolic Activation: NONE): active; positive

Cc1ccc2nsc(NC(=O)C(Cl)Cl)c2c1
mutagenic call [2]: active; positive
mutagenic call (Test System: AMES SALMONELLA TYPHIMURIUM, Strain/Indicator: TA98, Metabolic Activation: S-9, Method: STANDARD PLATE): active; positive
mutagenic call [3]: active; positive
mutagenic call (Test System: AMES SALMONELLA TYPHIMURIUM, Strain/Indicator: TA100, Metabolic Activation: S-9, Method: STANDARD PLATE): active; positive
mutagenic call (Test System: AMES SALMONELLA TYPHIMURIUM, Strain/Indicator: TA1535, Metabolic Activation: NONE, Method: STANDARD PLATE): inactive; negative
mutagenic call (Test System: AMES SALMONELLA TYPHIMURIUM, Strain/Indicator: TA1535, Metabolic Activation: S-9, Method: STANDARD PLATE): inactive; negative
mutagenic call (Test System: AMES SALMONELLA TYPHIMURIUM, Strain/Indicator: TA1537, Metabolic Activation: NONE, Method: STANDARD PLATE): active; positive
mutagenic call (Test System: AMES SALMONELLA TYPHIMURIUM, Strain/Indicator: TA1537, Metabolic Activation: S-9, Method: STANDARD PLATE): active; positive
